Measured values reported in patent US10350315B2, “Quinoline-3-carboxamide compounds and their use in diagnosis” (Westfaelische Wihelms-Universitaet Muenster, priority 2014, dated 2019).

What was measured:
S100A9 [1] = target: T1, S100A9 (Homo sapiens, UniProt P06702); assay: Binding constant to coated S100A9 by fluorimetric measurement (one site saturation model); details: human S100A9 homodimer coated, 1 h at 4° C.
T1 sequence (P06702 1-114): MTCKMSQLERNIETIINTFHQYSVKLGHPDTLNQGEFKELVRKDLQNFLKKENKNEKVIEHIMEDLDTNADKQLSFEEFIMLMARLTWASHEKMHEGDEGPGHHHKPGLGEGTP
Procedure: (§1) FIG. 15: Binding of Cy5.5-CES271 to human and murine S100A9. Estimation of the binding constant of Cy5.5-CES271 to human (A) and murine (B) S100A9. The constant was calculated using the one site saturation regression model. Each dot represents the mean value of four independent experiments.
(§2) The binding constant of Cy5.5-CES271 to murine and human S100A9 was determined by fluorimetric measurements. 0.3788 μM S100A9 (5 μg ml^−1 of homodimer S100A9) solved in 50 μl PBS was coated to the bottom of a 96-well plate and served as capturing molecule. For each S100A9 coated well a control well was used with 50 μl PBS alone. After a washing step, unspecific binding sites were blocked by PBS/5% skim milk powder. Cy5.5-CES271 was added at increasing concentrations. After 1 h incubation at 4° C., the supernatants were removed and the fluorescence intensity was measured with a fluorimeter. Non-linear regression analysis was performed with a one site saturation model, to calculate the binding constant of Cy5.5-CES271 to either murine or human S100A9. […] A strong binding affinity of the tracer to S100A9 could be observed that is not affected by the attachment of Cy5.5 to CES271.

murine S100A9 = target: T2, murine S100A9 (Mus musculus, UniProt P31725); assay: as above; details: murine S100A9 homodimer coated, 1 h at 4° C.
T2 sequence (P31725 1-113): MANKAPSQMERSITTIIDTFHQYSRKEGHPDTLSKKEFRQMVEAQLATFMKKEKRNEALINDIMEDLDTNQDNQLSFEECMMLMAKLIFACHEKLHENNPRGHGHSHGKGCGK
Procedure: as §1, §2

S100A9 [2] = target: T3, S100A9 (Mus musculus, UniProt P31725); assay: Atherosclerosis mouse model (HypoE, HFC diet), FRI of the explanted aorta; assay type: in vivo, SR-BI−/−/apoER61h/h mice (HypoE); details: 10 days HFC diet, 2 h p.i.
T3 construct: from tissue; host or cells: living mice (inflamed ear, joints) and explanted mouse heart, aorta and lungs
T3 sequence (P31725 2-113 limits assumed): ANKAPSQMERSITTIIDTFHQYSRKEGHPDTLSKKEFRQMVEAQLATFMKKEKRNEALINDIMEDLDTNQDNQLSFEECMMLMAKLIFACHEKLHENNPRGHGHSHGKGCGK
Procedure: FIG. 8: Accumulation of Cy5.5-CES271 in a mouse model of atherosclerosis in a HypoE mouse, 10 days on HFC diet.
Atherosclerosis is an inflammatory disease of the vessel wall. SR-BI^−/−/apoE^R61 h/h-mice (HypoE) are known to develop atherosclerotic lesions especially when set on a high fat and high choleresterol diet (HFC). Typical predeliction site is the aortic arch. 12-14 week old mice were set on HFC diet for 10 days. At day 10 of HFC diet Cy5.5-CES271 was injected i.v., the mice were sacrificed two hours p.i., the aortic arches were explanted, and measured ex-vivo by FRI.
The hearts and aorta were fixed overnight in 4% paraformaldehyde and embedded in paraffin. Sections measuring 4 μm in thickness were analyzed. For immunohistochemistry, paraffin skin sections (4 μm) were dewaxed, blocked with 10% fetal bovine serum, and incubated with rabbit anti-S100A9 or MAC-3 antibodies for 1 h at room temperature followed by a goat-anti-rabbit biotinylated antibody and 3,3′ diaminobenzidine (DAB).

## 3-ethyl-2((1E,3E,5E)-5-(3-(1-(5-ethyl-4-hydroxy-1-methyl-2-oxo-1,2-dihydroquinolin-3-yl)-1,15-dioxo-2-phenyl-5,8,11-trioxa-2,14-diazanonadecan-19-yl)-1,1-dimethyl-6,8-disulfonato-1H-benzo[e]indol-2(3H)-ylidene)penta-1,3-dien-1-yl)-1,1-dimethyl-1H-benzo[e]indol-3-ium-6,8-disulfonate [Cy5.5-CES271]
S100A9 [1]
  Kd: 2060 nM
Murine S100A9
  Kd: 2660 nM
S100A9 [2]
  Accumulation in plaque lesions of the explanted aorta: accumulation
